From PMC10917278, “Structural insights into the modulation Of SOD1 aggregation By a fungal metabolite Phialomustin-B: Therapeutic potential in ALS” (PLOS ONE, 2024)

Molecular target: T1, SOD1^WT (Homo sapiens, UniProt P00441)
T1 construct: The full-length constructs of SOD1-wild type (aa: 1–145); His-tag (cleaved yes); made in house; host or cells: E. coli BL21 DE3
Assay: Thioflavin T (ThT) fluorescence aggregation assay, SOD1^WT
Type: biochemical
Details: 37 °C, reduced conditions
Procedure: Following the co-crystal structure elucidation of SOD1 in complex with PB, we wanted to identify the effect of PB on the aggregation of SOD1^WT and its disease mutant, SOD1^A4V. A comprehensive analysis of the anti-aggregation propensity of PB was performed using a ThT-based fluorescence assay and analytical size-exclusion based chromatography (SEC) assay. We used Thioflavin-T, a β-sheet formation reporter, to assess the aggregation of SOD1. Time lag (tlag) is a kinetic parameter used to evaluate the lag phase of fibrillation. Fibril elongation was used to evaluate the rate of β sheet formation. […] Similar effects on lag time are also observed for SOD1^A4V. […] Moreover, ThT-based aggregation assays were also performed for the PB site-specific mutants, SOD1^A123F, SOD1^K9F, SOD1^L42R, and SOD1^G10P (S4a, S4c, S4e and S4g Fig). As expected based on the abovementioned MST results, the aggregation analysis is inconclusive as these mutants, which correspond to the ligand binding residues, cause a loss of protein-ligand interactions.
Fig 6 Aggregation studies of metallated and reduced SOD1^WT and SOD1^A4V on treatment with PB. ThT fluorescence was monitored during the co-incubation of metallated SOD1^WT (50 μM) (a) or SOD1^A4V (50 μM) (b) with PB at 1:30 molar ratio at 37 °C with continuous shaking, under reduced conditions. The values were normalized to the maximal ThT intensity elicited by SOD1^WT or SOD1^A4V and fitted to a Boltzmann sigmoidal equation. The control and PB-treated species were compared to analyse the effects of PB on the aggregation of SOD1^WT and SOD1^A4V. Error bars indicate the standard deviation. Analytical SEC of metallated SOD1^WT (50 μM) (c) and SOD1^A4V (50 μM) (d) with PB were analyzed under reducing conditions before and after 24 hrs and 48 hrs incubation at 37 °C. The first peak eluting at the volume was denoted as oligomerized SOD1^WT/SOD1^A4V (L). The second, third, and fourth peaks were calculated as trimer (T), dimer (D), and monomer (M) species of SOD1^WT/SOD1^A4V running at 14.5 ml, 15.7 ml, and 16.5 ml, respectively. […] The monomer (M), dimer (D), trimer (T), and large aggregate (L) species are shown as green, purple, red, and black dotted lines, respectively. All the experiments were performed for n = 3 biological replicates.
Fig 7 Aggregation studies of de-metallated and reduced SOD1^WT and SOD1^A4V on treatment with PB. ThT fluorescence was monitored during the co-incubation of de-metallated SOD1^WT (50 μM) (a) or SOD1^A4V (50 μM) (b) with PB at 1:30 molar ratio at 37 °C with continuous shaking, under reduced conditions. The values were normalized to the maximal ThT intensity elicited by SOD1^WT or SOD1^A4V and fitted to a Boltzmann sigmoidal equation. The control and PB-treated species were compared to analyse PB’s effects on the aggregation of SOD1^WT and SOD1^A4V. Analytical SEC of de-metallated SOD1^WT (50 μM) (a) and SOD1^A4V (50 μM) (b) with PB were analysed under reducing conditions before and after 24 hrs and 48 hrs incubation at 37 °C. The first peak eluting at the volume was denoted as oligomerized SOD1^WT (L) runs at 9.2 ml. The second, third, and fourth peaks were calculated as trimer (T), dimer (D), and monomer (M) species of SOD1^WT/SOD1^A4V running at 14.5 ml, 15.7 ml, and 16.5 ml, respectively. […] In the case of SOD1^A4V, PB eliminates the formation of large aggregates compared to the control (48hrs-EC, EC represents control with EDTA). […]

[1] = De-metallated (5 mM EDTA) SOD1^WT 50 μM with PB at 1:30 molar ratio
[2] = Metallated SOD1^WT 50 μM with PB at 1:30 molar ratio

T1 sequence (P00441 whole entry): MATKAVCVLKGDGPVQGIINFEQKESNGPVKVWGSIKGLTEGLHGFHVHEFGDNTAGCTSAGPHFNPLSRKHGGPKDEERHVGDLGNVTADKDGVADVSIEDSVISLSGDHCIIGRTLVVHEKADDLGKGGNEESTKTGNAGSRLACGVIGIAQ

`CCCC[C@H](C)/C=C(C)/C=C/C(=O)O` [PB, (S, 2E, 4E)-4,6-dimethyldeca-2,4-dienoic acid] gave a kapp [1] of 0.374 h⁻¹, a t50 [1] of 1.851 h and a tlag [1] of 1.84 h. It also gave a kapp [2] of 0.233 h⁻¹ and a t50 [2] of 2.976 h.
